Results on 17 compounds are retold here after PubChem BioAssay AID212 (DTP/NCI, 2004).

This assay concerns BDF1 mice, colon carcinoma 38 sc, T/C %. Nature of the assay: NCI In Vivo Anticancer Drug Screen. Data for tumor model Colon Carcinoma 38 (subcutaneous) in B6D2F1 (BDF1) mice. The settings on record: endpoint: median tumor weight (est.), higher = larger tumour. How it is done: The antitumor activity of compounds was measured in mice bearing transplantable tumors. Survival or tumor size were measured and the results are expressed as the measurement made in the treated group (T) divided by the measurement made in the vehicle treated control group (C). The tumor model used in this assay is Colon Carcinoma 38 (subcutaneous) in B6D2F1 (BDF1) mice

Setting [1] is: dose: 12.5 mg/kg/injection, schedule: Q07DX002 (ip), vehicle: Klucel (hydroxypropylcellulose) (HPC).
Setting [2] is: dose: 50.0 mg/kg/injection, schedule: Q07DX002 (ip), vehicle: Klucel (hydroxypropylcellulose) (HPC).
Where [3] appears, read: dose: 100.0 mg/kg/injection, schedule: Q07DX002 (ip), vehicle: Klucel (hydroxypropylcellulose) (HPC).
The mark [4] stands for this setting: dose: 25.0 mg/kg/injection, schedule: Q07DX002 (ip), vehicle: saline with Tween-80.
The mark [5] stands for this setting: dose: 50.0 mg/kg/injection, schedule: Q07DX002 (ip), vehicle: saline with Tween-80.
Setting [6] is: dose: 100.0 mg/kg/injection, schedule: Q07DX002 (ip), vehicle: saline with Tween-80.
Setting [7] is: dose: 200.0 mg/kg/injection, schedule: Q07DX002 (ip), vehicle: saline with Tween-80.
[8] abbreviates: dose: 400.0 mg/kg/injection, schedule: Q07DX002 (ip), vehicle: saline with Tween-80.
Setting [9] is: dose: 12.5 mg/kg/injection, schedule: Q07DX002 (ip), vehicle: saline with Tween-80.
The mark [10] stands for this setting: dose: 12.5 mg/kg/injection, schedule: Q07DX002 (ip), vehicle: water.
Where [11] appears, read: dose: 200.0 mg/kg/injection, schedule: Q07DX002 (ip), vehicle: Klucel (hydroxypropylcellulose) (HPC).
Setting [12] is: dose: 400.0 mg/kg/injection, schedule: Q07DX002 (ip), vehicle: Klucel (hydroxypropylcellulose) (HPC).
The mark [13] stands for this setting: dose: 25.0 mg/kg/injection, schedule: Q07DX002 (ip), vehicle: Klucel (hydroxypropylcellulose) (HPC).
Setting [14] is: dose: 6.25 mg/kg/injection, schedule: Q07DX002 (ip), vehicle: saline with Tween-80.

Where “and” joins values, the source holds several entries; their conditions need not be identical. Identical values can stand only once. Records with an inconclusive call do not appear.

On to `CN1CCc2c(c3ccccc3c3ccccc23)C1`, for which the T/C (dose: 6.25 mg/kg/injection, schedule: Q07DX002 (ip), vehicle: Klucel (hydroxypropylcellulose) (HPC)) is 111 % of control; the T/C under setting [1] is 93 % of control; the T/C under setting [2] was 86 % of control; the T/C under setting [3] was 72 % of control.

`CCOC(=O)N1CCc2nc3ccc(Cl)cc3cc21`: the T/C is 68 % of control under setting [4]; 68 % of control under setting [5]; 166 % of control under setting [6]; 79 % of control under setting [7]; 111 % of control under setting [8].

For the compound `c1ccc2c(NCCCCCCNc3c4ccccc4nc4ccccc34)c3ccccc3nc2c1`, the T/C (dose: 1.25 mg/kg/injection, schedule: Q07DX002 (ip), vehicle: Klucel (hydroxypropylcellulose) (HPC)) is 109 % of control and 95 % of control; the T/C (dose: 2.5 mg/kg/injection, schedule: Q07DX002 (ip), vehicle: Klucel (hydroxypropylcellulose) (HPC)) is 122 % of control and 97 % of control; the T/C (dose: 5.0 mg/kg/injection, schedule: Q07DX002 (ip), vehicle: Klucel (hydroxypropylcellulose) (HPC)) was 70 % of control; the T/C (dose: 20.0 mg/kg/injection, schedule: Q07DX002 (ip), vehicle: Klucel (hydroxypropylcellulose) (HPC)) is 70 % of control and 76 % of control; the T/C (dose: 40.0 mg/kg/injection, schedule: Q07DX002 (ip), vehicle: Klucel (hydroxypropylcellulose) (HPC)) was 72 % of control.

On to `NC(=S)N/N=C/c1ccc(OC(=O)COc2ccc(Cl)cc2)cn1`, for which the T/C reads like this: under setting [9], 61 % of control; under setting [4], 77 % of control; under setting [5], 119 % of control; under setting [6], 89 % of control; under setting [7], 81 % of control; under setting [8], 70 % of control.

Turning to `NC(=O)/C=C/c1c[nH]c2nccnc12`, the T/C reads like this: (dose: 6.25 mg/kg/injection, schedule: Q07DX002 (ip), vehicle: water) 59 % of control; under setting [10], 97 % of control; (dose: 25.0 mg/kg/injection, schedule: Q07DX002 (ip), vehicle: water) 116 % of control; (dose: 100.0 mg/kg/injection, schedule: Q07DX002 (ip), vehicle: water) 94 % of control.

In the case of `CCNC(=O)[B-][N+](C)(C)C`, the T/C by setting is: under setting [3], 116 % of control; under setting [11], 67 % of control; under setting [12], 113 % of control and 96 % of control.

In the case of `N#CC(C#N)=C/C=C/c1cccc([N+](=O)[O-])c1`, the T/C is 79 % of control (dose: 6.25 mg/kg/injection, schedule: Q07DX003 (ip), vehicle: Klucel (hydroxypropylcellulose) (HPC)); 77 % of control (dose: 12.5 mg/kg/injection, schedule: Q07DX003 (ip), vehicle: Klucel (hydroxypropylcellulose) (HPC)); 76 % of control (dose: 25.0 mg/kg/injection, schedule: Q07DX003 (ip), vehicle: Klucel (hydroxypropylcellulose) (HPC)); 60 % of control (dose: 50.0 mg/kg/injection, schedule: Q07DX003 (ip), vehicle: Klucel (hydroxypropylcellulose) (HPC)).

Regarding `COC1/C=C\C=C(/C)C(=O)NC2=CC(=O)C=C(C2=O)C(OC)C(C)CC(OC)C(OC)C(C)/C=C(/C)C1OC(N)=O` (centres undefined), the T/C is, setting by setting: (dose: 1.5 mg/kg/injection, schedule: Q07DX002 (ip), vehicle: Klucel (hydroxypropylcellulose) (HPC)) 159 % of control; (dose: 6.0 mg/kg/injection, schedule: Q07DX002 (ip), vehicle: Klucel (hydroxypropylcellulose) (HPC)) 117 % of control; (dose: 12.0 mg/kg/injection, schedule: Q07DX002 (ip), vehicle: Klucel (hydroxypropylcellulose) (HPC)) 115 % of control.

For the compound `C(C#CCN1CCOCC1)#CCN1CCOCC1`, the T/C under setting [13] is 80 % of control; the T/C under setting [4] was 166 % of control; the T/C under setting [2] was 60 % of control; the T/C under setting [5] is 213 % of control; the T/C under setting [3] is 65 % of control; the T/C under setting [6] was 177 % of control. Moreover, the T/C runs as follows: under setting [11], 49 % of control; under setting [7], 296 % of control; under setting [12], 94 % of control; under setting [8], 285 % of control; (dose: 800.0 mg/kg/injection, schedule: Q07DX002 (ip), vehicle: Klucel (hydroxypropylcellulose) (HPC)) 60 % of control; (dose: 800.0 mg/kg/injection, schedule: Q07DX002 (ip), vehicle: saline with Tween-80) 262 % of control.

In the case of `CC(=O)C1=C(O)C2(O)C(=O)c3c(c(C)c4ccc(C)c(O)c4c3O)CC2C(N)C1=O` (centres undefined), the T/C was 79 % of control and 95 % of control (dose: 7.5 mg/kg/injection, schedule: Q07DX002 (ip), vehicle: saline + alcohol); 87 % of control and 106 % of control (dose: 15.0 mg/kg/injection, schedule: Q07DX002 (ip), vehicle: saline + alcohol); 95 % of control and 107 % of control (dose: 60.0 mg/kg/injection, schedule: Q07DX002 (ip), vehicle: saline + alcohol); 87 % of control (dose: 120.0 mg/kg/injection, schedule: Q07DX002 (ip), vehicle: saline + alcohol).

Regarding `O=C1CC(C(=O)N2Cc3cc4ccccc4nc3C2)CO1` (centres undefined), the T/C runs as follows: under setting [14], 72 % of control; under setting [9], 100 % of control; under setting [4], 101 % of control; under setting [5], 122 % of control; under setting [6], 124 % of control; under setting [7], 100 % of control.

As to `O=C(CO)c1ccc([N+](=O)[O-])cc1`, the T/C is 72 % of control under setting [14]; 105 % of control under setting [9]; 90 % of control under setting [4]; 97 % of control under setting [6]; 80 % of control under setting [7].

Take `CC(=O)NC(C=O)OCC=O` (centres undefined): the T/C under setting [10] is 92 % of control and the T/C (dose: 400.0 mg/kg/injection, schedule: Q07DX002 (ip), vehicle: water) is 152 % of control.

Take `O=C1CC2(C(=O)N1CN1CCCCC1)c1ccccc1-c1ccccc12`: the T/C is, setting by setting: under setting [1], 58 % of control; under setting [13], 97 % of control; under setting [2], 68 % of control; under setting [3], 102 % of control; under setting [11], 101 % of control; under setting [12], 81 % of control.

`CC[C@]1(O)C[C@H](OC2CC(N(C)C)C(OC3CC(O)C(O)C(C)O3)C(C)O2)c2c(cc3c(c2O)C(=O)c2c(O)ccc(O)c2C3=O)[C@H]1C(=O)OC` (some centres undefined): the T/C by setting is: (dose: 0.38 mg/kg/injection, schedule: Q07DX003 (ip), vehicle: Klucel (hydroxypropylcellulose) (HPC)) 109 % of control; (dose: 0.5 mg/kg/injection, schedule: Q07DX003 (ip), vehicle: Klucel (hydroxypropylcellulose) (HPC)) 45 % of control; (dose: 0.75 mg/kg/injection, schedule: Q07DX003 (ip), vehicle: Klucel (hydroxypropylcellulose) (HPC)) 62 % of control; (dose: 1.0 mg/kg/injection, schedule: Q07DX003 (ip), vehicle: Klucel (hydroxypropylcellulose) (HPC)) 25 % of control; (dose: 1.5 mg/kg/injection, schedule: Q07DX003 (ip), vehicle: Klucel (hydroxypropylcellulose) (HPC)) 66 % of control; (dose: 3.0 mg/kg/injection, schedule: Q07DX003 (ip), vehicle: Klucel (hydroxypropylcellulose) (HPC)) 73 % of control. Besides, the T/C is 35 % of control (dose: 4.0 mg/kg/injection, schedule: Q07DX003 (ip), vehicle: Klucel (hydroxypropylcellulose) (HPC)); 79 % of control (dose: 6.0 mg/kg/injection, schedule: Q07DX003 (ip), vehicle: Klucel (hydroxypropylcellulose) (HPC)); 21 % of control (dose: 8.0 mg/kg/injection, schedule: Q07DX003 (ip), vehicle: Klucel (hydroxypropylcellulose) (HPC)).

Regarding `COP12(OCCO1)SC(C(F)(F)F)=C(C(F)(F)F)S2`, the T/C runs as follows: (dose: 0.75 mg/kg/injection, schedule: Q07DX002 (ip), vehicle: saline with Tween-80) 81 % of control; (dose: 1.5 mg/kg/injection, schedule: Q07DX002 (ip), vehicle: saline with Tween-80) 92 % of control; (dose: 3.0 mg/kg/injection, schedule: Q07DX002 (ip), vehicle: saline with Tween-80) 84 % of control; (dose: 6.0 mg/kg/injection, schedule: Q07DX002 (ip), vehicle: saline with Tween-80) 83 % of control; (dose: 12.0 mg/kg/injection, schedule: Q07DX002 (ip), vehicle: saline with Tween-80) 75 % of control.

For `O=C1N(Cl)C(=O)C(c2ccc(Cl)cc2)(c2ccc(Cl)cc2)N1Cl`, under setting [4], the T/C is 87 % of control and 90 % of control and 100 % of control.
